± gives the expanded uncertainty stated by the source.
Experiment: activity coefficient (dimensionless); of the first substance listed, at infinite dilution; xn = mol fraction of the nth substance listed
Conditions: 101 kPa, Liquid, Chromatography, x1 = 0

Row | SMILES | activity coefficient (328.15 K) | activity coefficient (338.15 K) | activity coefficient (343.15 K) | activity coefficient (348.15 K) | activity coefficient (348.25 K) | activity coefficient (353.15 K) | activity coefficient (358.25 K) | activity coefficient (363.21 K) | activity coefficient (338.2 K) | activity coefficient (353.22 K)
1 | c1ccccc1 [benzene] + NCCCCCCCCN | 1.8 ± 0.09 | 1.67 ± 0.083 | 1.62 ± 0.08 | 1.59 ± 0.078 |  |  |  |  |  | 
2 | CO [methanol] + NCCCCCCCCCCCCN |  |  |  |  | 0.774 ± 0.037 | 0.841 ± 0.039 | 0.919 ± 0.041 | 1.01 ± 0.044 |  | 
3 | ClCCl [dichloromethane] + NCCCCCCCCN | 0.657 ± 0.034 | 0.552 ± 0.032 | 0.53 ± 0.031 | 0.513 ± 0.031 |  |  |  |  |  | 
4 | CO [methanol] + NCCCCCCCCCCN |  |  |  | 0.634 ± 0.033 |  |  |  |  | 0.551 ± 0.032 | 0.682 ± 0.035
5 | CCCCCCl [1-chloropentane] + NCCCCCCCCCCN |  |  |  | 2.43 ± 0.12 |  |  |  |  | 2.94 ± 0.15 | 2.23 ± 0.12
6 | C=CCCCCC [1-heptene] + NCCCCCCCCCCCCN |  |  |  |  | 4.43 ± 0.23 | 4.22 ± 0.22 | 4.08 ± 0.21 | 3.88 ± 0.2 |  | 
7 | CCCCOC(C)=O [butyl ethanoate] + NCCCCCCCCCCN |  |  |  | 1.17 ± 0.054 |  |  |  |  | 1.5 ± 0.073 | 1.03 ± 0.046
8 | ClC(Cl)(Cl)Cl [tetrachloromethane] + NCCCCCCCCN | 2.06 ± 0.11 | 1.66 ± 0.082 | 1.51 ± 0.073 | 1.37 ± 0.065 |  |  |  |  |  | 
9 | CCCOC(C)=O [propyl ethanoate] + NCCCCCCCCCCCCN |  |  |  |  | 1.55 ± 0.076 | 1.45 ± 0.07 | 1.35 ± 0.064 | 1.26 ± 0.058 |  | 
10 | CCCCCCCl [1-chlorohexane] + NCCCCCCCCCCCCN |  |  |  |  | 4.5 ± 0.23 | 4.27 ± 0.22 | 4.11 ± 0.21 | 3.94 ± 0.2 |  | 
11 | CCCCCCl [1-chloropentane] + NCCCCCCCCCCCCN |  |  |  |  | 3.08 ± 0.16 | 2.91 ± 0.15 | 2.73 ± 0.14 | 2.68 ± 0.14 |  | 
12 | CCc1ccccc1 [ethylbenzene] + NCCCCCCCCN | 2.07 ± 0.11 | 1.86 ± 0.094 | 1.77 ± 0.089 | 1.72 ± 0.085 |  |  |  |  |  | 
13 | Cc1ccccc1 [toluene] + NCCCCCCCCN | 2.39 ± 0.12 | 2.17 ± 0.11 | 2.11 ± 0.11 | 2.07 ± 0.11 |  |  |  |  |  | 
14 | C=CCCCCC [1-heptene] + NCCCCCCCCCCN |  |  |  | 3.1 ± 0.16 |  |  |  |  | 3.43 ± 0.18 | 2.97 ± 0.15
